Source: publication PMC4207771, “Identification and Characterization of Novel Renal Sensory Receptors” (PLoS ONE, 2014)
Entries after “also recorded” stand apart in the source; their conditions may differ. Like-named read-outs stand apart in the source and are kept apart here.

Columns and labels:
[1] = system: Olfr693; assay: dual-luciferase (cAMP/CREB reporter) ligand screen, Olfr693 in HEK293T cells; format: cell-based, mouse; parameters: key: ‘+’ or ‘–‘ in each column indicates if the olfactory receptor responded or had no effect to that specific chemical; -: ‘+’ or ‘–‘ in each column indicates if the olfactory receptor responded or had no effect to that specific chemical; details: chemicals tested individually, screened at 500uM (* also at 100uM)
[2] = target: T1, Olfr691 (Mus musculus, UniProt Q8VGW5); parameters: method as in PMID 15550249; details: cited from earlier work
T1 construct: Lucy (N); expressed in transfected cells; host or cells: HEK293T, co-transfected with RTP1S
T1 sequence (Q8VGW5 1-322): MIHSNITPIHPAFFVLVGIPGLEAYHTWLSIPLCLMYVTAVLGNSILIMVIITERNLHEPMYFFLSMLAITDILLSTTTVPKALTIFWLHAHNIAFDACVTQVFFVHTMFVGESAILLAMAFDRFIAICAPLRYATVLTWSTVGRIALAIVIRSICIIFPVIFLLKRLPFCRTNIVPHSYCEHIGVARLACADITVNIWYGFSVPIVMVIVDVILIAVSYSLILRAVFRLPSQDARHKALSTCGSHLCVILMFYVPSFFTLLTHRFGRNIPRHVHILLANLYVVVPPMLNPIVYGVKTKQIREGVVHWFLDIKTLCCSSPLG

[3] = system: Olfr99; assay: dual-luciferase (cAMP/CREB reporter) ligand screen, Olfr99 in HEK293T cells; format: cell-based, mouse; parameters: key: ‘+’ or ‘–‘ in each column indicates if the olfactory receptor responded or had no effect to that specific chemical; -: ‘+’ or ‘–‘ in each column indicates if the olfactory receptor responded or had no effect to that specific chemical; details: chemicals tested individually, screened at 500uM (* also at 100uM)
[4] = target: T2, Olfr31 (Mus musculus, UniProt Q3KPA7); assay: dual-luciferase (cAMP/CREB reporter) ligand screen, Olfr31 in HEK293T cells; format: cell-based; details: chemicals tested individually, screened at 500uM (* also at 100uM)
T2 construct: expressed in transfected cells; host or cells: HEK293T, co-transfected with RTP1S
T2 sequence (Q3KPA7 1-317): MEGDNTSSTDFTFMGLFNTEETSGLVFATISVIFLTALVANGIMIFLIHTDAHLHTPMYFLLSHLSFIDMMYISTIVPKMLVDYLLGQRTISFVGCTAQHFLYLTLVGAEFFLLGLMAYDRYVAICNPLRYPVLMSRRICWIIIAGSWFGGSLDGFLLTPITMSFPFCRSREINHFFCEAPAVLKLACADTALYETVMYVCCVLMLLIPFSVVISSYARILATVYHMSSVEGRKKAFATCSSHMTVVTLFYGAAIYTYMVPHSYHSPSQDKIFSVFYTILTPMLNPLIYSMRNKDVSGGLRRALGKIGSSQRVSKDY

[5] = system: Olfr545; assay: dual-luciferase (cAMP/CREB reporter) ligand screen, Olfr545 in HEK293T cells; format: cell-based, mouse; parameters: key to Olfr545 response in dual-luciferase assay: ‘+’ or ‘–‘ in each column indicates if the olfactory receptor responded or had no effect to that specific chemical; -: ‘+’ or ‘–‘ in each column indicates if the olfactory receptor responded or had no effect to that specific chemical; details: for Olfr545 response in dual-luciferase assay: chemicals tested individually, screened at 500uM (* also at 100uM)
[6] = target: T1, Olfr691; assay: dual-luciferase (cAMP/CREB reporter) ligand screen, Olfr691 in HEK293T cells; format: cell-based; details: for Olfr691 response in dual-luciferase assay: chemicals tested individually, screened at 500uM (* also at 100uM); for Olfr691 response (in words): luciferase assay, co-expressed with RTP1S; for Relative response (% of 4-pentenoate response) at 500 µM: HEK-293T, 4 h; for EC50: Olfr691 co-expressed with RTP1S in HEK293T cells, 10 µM to 7.5 mM
[7] = parameters: method as in PMID 20304335, PMID 15230715; details: patients treated with valproate as an antiepileptic drug; cited from earlier work
[8] = 0.5 mM ligand, normalized to the response of Olfr691 to the strongest ligand, 4-pentenoate

Row | Olfr691 response in dual-luciferase assay [6] | Olfr691 response (in words) ([6]; listed as pentanal) | Relative response at 0.5mM [6, 8] | Olfr691 response (in words) [6] | Relative response (% of 4-pentenoate response) at 500 µM [6, 8] [%] | EC50 [6] [µM] | Compound | Olfr693 response in dual-luciferase assay [1] | previously reported ligand of Olfr691 ([2]; listed as pentanal) | Olfr99 response in dual-luciferase assay [3] | Olfr31 response in dual-luciferase assay [4] | Olfr545 response in dual-luciferase assay [5] | Olfr545 response (in words) ([5]; luciferase assay) | previously reported ligand of Olfr691 [2] | renal adverse effect in patients [7]
1 | + |  | 42 ± 3.1 | responds |  |  | CCC(=O)O [propionate] | - |  | - | - | - |  |  | 
2 | - |  |  |  |  |  | CCCCC/C=C/CO [trans-2-octen-1-ol] | - |  | - | - | - |  |  | 
3 | + |  |  | highest affinity | 98 ± 5 | 478 | CCCC(CCC)C(=O)O [valproate, reference compound] | - |  | - |  | - |  |  | develop Fanconi syndrome

The remaining lines, values behind:

Row | Compound | Olfr691 response in dual-luciferase assay [6] | Olfr691 response (in words) ([6]; listed as pentanal) | Relative response at 0.5mM [6, 8] | Olfr691 response (in words) [6] | Relative response (% of 4-pentenoate response) at 500 µM [6, 8] [%] | EC50 [6] [µM] | Olfr693 response in dual-luciferase assay [1] | previously reported ligand of Olfr691 ([2]; listed as pentanal) | Olfr99 response in dual-luciferase assay [3] | Olfr31 response in dual-luciferase assay [4] | Olfr545 response in dual-luciferase assay [5] | Olfr545 response (in words) ([5]; luciferase assay) | previously reported ligand of Olfr691 [2] | renal adverse effect in patients [7]
4 | CCCCC=O [n-valeraldehyde] | - | did not induce a response |  |  |  |  | - | previously reported | - | - | - |  |  | 
5 | O=C1CCCCCCCCCCCCCCO1 [omega-pentadecalactone] | - |  |  |  |  |  | - |  | - | - | - |  |  | 
6 | CC(C)C(=O)OCCc1ccccc1 [phenyl ethyl isobutyrate] | - |  |  |  |  |  | - |  | - | - | - |  |  | 
7 | O=C(O)CCCCCCCCC(=O)O [sebacic acid] | - |  |  |  |  |  | - |  | - | - | - | did not induce a response |  | 
8 | CCCCC(=O)O [valerate] | + |  |  | dose dependent manner; also recorded: able to confirm | 98 ± 5.7 | 852 | - |  | - | - | - |  | previously reported | 
9 | Myrtenal | - |  |  |  |  |  | - |  | - | - | - |  |  | 
